Patent US6660496B1 (priority 1993, dated 2003)
“Also recorded” adds a separate entry of the source.

Tests used:
[1] = system: kappa3 receptors; details: cited from earlier work
[2] = system: kappa3 opioid receptor; assay: Effect of antisense treatment on kappa3 analgesic activity (tailflick assay); assay type: in vivo; details: mice, 5 μg oligodeoxynucleotide intracerebroventricular on days 1, 3 and 5, quantal tailflick 15 min after drug; for Effect on analgesic response to NalBzoH: NalBzoH 15 μg on day 6; for Effect on analgesic response to morphine: morphine 1 μg on day 6

## Oc1ccc2c3c1O[C@H]1c4[nH]c5c(c4C[C@@]4(O)[C@@H](C2)N(CC2CC2)CC[C@]314)C[C@@]1(O)[C@H]2Cc3ccc(O)c4c3[C@@]1(CCN2CC1CC1)[C@H]5O4 [nor-binaltorphimine]
[1]
  Binding to kappa3 receptors: do not bind U50,488H or nor-binaltorphimine very well

## mismatched antisense: mismatched antisense in which two base pairs had been switched (5′-GGGTCGTGCAGAGACGCAGA-3′) (SEQ ID NO:5) (DNA, backbone and methylation of C not given here)
[2]
  Effect on analgesic response to NalBzoH: unaffected
[2]; listed as mismatched antisense probe
  Effect on analgesic response to NalBzoH: lack of activity

## antisense: anti-sense to the kappa3 clone (5′-GGGCTGTGCAGAAGCGCAGA-3′)(SEQ ID NO:3) (DNA, backbone and methylation of C not given here)
[2]
  Effect on analgesic response to NalBzoH: markedly lowered; also recorded: markedly reduced
  Effect on analgesic response to morphine: without interfering
[2]; listed as anti-sense
  Effect on analgesic response to morphine: unaffected

## sense strand: complementary sense strand to the antisense oligodeoxynucleotide (5′-CCCGACACGTCTTCGC-GTCT-3′) (SEQ ID NO:4) (sense CCCGACACGTCTTCGCGTCT; DNA, backbone and methylation of C not given here)
[2]
  Effect on analgesic response to NalBzoH: lack of activity
[2]; listed as sense
  Effect on analgesic response to NalBzoH: unaffected
